Where two headings read alike, the source gives them in different places. Non-standard residues stand in square brackets, D forms with d. Residues, ends and D or L forms follow the SMILES beside them. *: point of attachment. FITC = O=C1OC2(c3ccc(O)cc3Oc3cc(O)ccc32)c2ccc(NC(=S)*)cc21; Phe(4-NO2) = N[C@@H](Cc1ccc([N+](=O)[O-])cc1)C(=O)O; Ala(4-thiazolyl) = N[C@@H](Cc1cscn1)C(=O)O; β3hT = C[C@@H](O)[C@H](N)CC(=O)O; pS = N[C@@H](COP(=O)(O)O)C(=O)O; Aad = N[C@@H](CCCC(=O)O)C(=O)O; Cha = N[C@@H](CC1CCCCC1)C(=O)O; β3hS = N[C@@H](CO)CC(=O)O; Orn = NCCC[C@H](N)C(=O)O; Nva = CCC[C@H](N)C(=O)O; βAla = NCCC(=O)O
Key:
14-3-3γ [1] = biological target: T1, 14-3-3γ (Homo sapiens, UniProt P61981); test: Direct fluorescence anisotropy binding assay
T1 construct: Full-length human 14-3-3γ was expressed by transforming pROEX HTb plasmid; His6; made in house; host or cells: Rosetta(DE3) Escherichia coli
T1 sequence (P61981 1-247): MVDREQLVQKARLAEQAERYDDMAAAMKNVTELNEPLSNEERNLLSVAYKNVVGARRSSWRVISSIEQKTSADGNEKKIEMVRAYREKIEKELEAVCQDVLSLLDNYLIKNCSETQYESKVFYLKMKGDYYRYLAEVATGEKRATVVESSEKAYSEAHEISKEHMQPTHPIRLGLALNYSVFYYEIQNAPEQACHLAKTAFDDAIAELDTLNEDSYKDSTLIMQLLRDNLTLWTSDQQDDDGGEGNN
Method: (§1) All direct fluorescence anisotropy affinity measurements were conducted in FA buffer (10 mM HEPES pH 7.4, 150 mM NaCl, 0.1% (v/v) Tween 20, 0.1% (w/v) BSA). A 1:1 dilution series of 14-3-3γ (starting at 100 μM) was performed in polystyrene non-binding low-volume Corning Black Round Bottom 384-well plates (Corning 4514) containing a fixed concentration FITC-labeled peptide (10 nM or 50 nM). Measurements were performed at ambient temperature using a Tecan Infinite F500 plate reader with the following parameters: λex: 485 (20) nm; λem: 535 (25) nm; mirror: Dichroic 510; flashes: 20; integration time: 50 μs; settle time; 0 μs; gain: manual 90; Z-position: calculated from well. The G-factor was set at 35 mP based on wells containing only the FITC-labeled peptide.
Fluorescence anisotropy binding assay of 14-3-3γ-binding peptides:
as §1, with “All” for “All direct”, “BSA). During each assay a” for “BSA). A”, “series” for “series of 14-3-3γ”, “μM) of 14-3-3γ” for “μM)”, “was made in wells containing a fixed concentration FITC-labeled peptide (10 nM or 50 nM). This was done” for “was performed”, “(Corning 4514).” for “(Corning 4514) containing a fixed concentration FITC-labeled peptide (10 nM or 50 nM).”

14-3-3σΔc = biological target: T2, 14-3-3σΔc (Homo sapiens, UniProt P31947); test: Direct fluorescence anisotropy binding validation with 14-3-3σΔc; conditions: 14-3-3σ
T2 construct: The 14-3-3σ isoform with a truncated C-terminus after T321; His6 (cleaved yes); made in house; host or cells: BL21(DE3) Escherichia coli
T2 sequence (P31947 1-231 limits assumed): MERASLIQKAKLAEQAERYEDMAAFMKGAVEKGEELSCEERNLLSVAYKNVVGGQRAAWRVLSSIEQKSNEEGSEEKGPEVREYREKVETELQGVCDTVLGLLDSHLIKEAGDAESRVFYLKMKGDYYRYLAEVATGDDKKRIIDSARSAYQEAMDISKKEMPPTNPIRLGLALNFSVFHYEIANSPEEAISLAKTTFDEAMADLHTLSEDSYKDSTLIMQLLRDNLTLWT

anti-HA mAb clone 12ca5 = test: Competition fluorescence polarization of HA epitope and analogues; assay type: binding; conditions: for effect of mutation on affinity towards 12ca5: competition FP of HA epitope Ala scan mutants; for IC50: competition FP, 100 nM 12ca5, 28 nM YPYDVPDYAK(FITC)-CONH2, 1 mg/mL BSA, 0.02% Tween 20, 1x PBS, RT, read after 1 h; for Kd: from competition FP, 100 nM 12ca5, 28 nM FITC tracer
Method: Competition fluorescence polarization of HA epitope and analogues:
Solutions of unlabeled peptides (~1 mg/mL each; Supplementary Table 1) in 1x PBS was prepared in the presence of 100 nM 12ca5, 1 mg/mL BSA, 0.02% Tween 20 (120 μL). Fluorescent competitor was added (YPYDVPDYAK(FITC)α-CONH2; 28 nM).
The resulting solution was diluted serially (20 μL) into 100 nM 12ca5, 28 nM […]
YPYDVPDYAK(FITC)α-CONH2, 1 mg/mL BSA, 0.02% Tween 20 in 1x PBS (80 μL; […]
5-fold dilutions). The resulting solutions were transferred to a 96 well plate (Greiner Bio- […]
(RT), and read after 1 h on a Tecan Infinite M1000 plate reader (470 nm excitation; 517 nm detection; 5 nm bandwidth). The concentration of fluorescent […] was determined based on absorbance at 490 nm, using ε = 76,900 M-1cm-1.
Competition fluorescence polarization of HA epitope Ala scan mutants:
Competition fluorescence polarization experiments were carried out as described in Competition fluorescence polarization of HA epitope and analogues.

14-3-3γ [2] = biological target: T1, 14-3-3γ; test: Fluorescence anisotropy competition assay with FITC-labeled BiExoS; assay type: binding
Method: All fluorescence anisotropy competition experiments were conducted in FA buffer (10 mM HEPES pH 7.4, 150 mM NaCl, 0.1% (v/v) Tween-20, 0.1% (w/v) BSA). A 1:1 dilution series of unlabeled peptides (starting at 10 μM) were performed in wells containing a fixed concentration FITC-labeled biExoS (10 nM) and 14-3-3γ (20 nM). Measurements were performed at ambient temperature using a Tecan Infinite F500 plate reader with the following parameters: λex = 485 (20) nm; λem = 535 (25) nm, mirror: Dichroic = 510, flashes: 20; integration time: 50 μs; settle time: 0 μs; gain: manual 90; and Z-position: calculated from well. The G-factor was set at 35 mP based on wells containing only the FITC-labeled peptide.
Competition fluorescence anisotropy binding assay of 14-3-3γ-binding peptides:
All fluorescence anisotropy affinity measurements were conducted in FA buffer (10 mM HEPES pH 7.4, 150 mM NaCl, 0.1% (v/v) Tween-20, 0.1% (w/v) BSA). During each assay a 1:1 dilution series (starting at 10 μM) of unlabeled peptides were made in wells containing a fixed concentration FITC-labeled biExoS (10 nM; FITC-O1Pen- […]
[…](GGSGGGGSGG)[…]-CONH2)5, and 14-3-3γ (20 nM).
This is done in polystyrene non -binding low-volume Corning Black Round Bottom 384 - well plates (Corning 4514). Measurements were performed at ambient temperature using a Tecan Infinite F500 plate reader with the following parameters : λex = 485 (20) nm; λem = 535 (25) nm, mirror: Dichroic = 510, flashes: 20; integration time: 50 μs; settle time: 0 μs; gain: manual 90; and Z-position: calculated from well. The G-factor was set at 35 mP based on wells containing only the FITC-labeled peptide.

[3] = FITC-labeled peptide (10 or 50 nM), 14-3-3γ dilution from 100 μM, FA buffer pH 7.4, ambient temperature, ± 95% confidence interval, read-out: KD

Q: What does the source list for `CCC[C@H](NC(=O)[C@H](N)CCCCN)C(=O)N[C@@H](Cc1ccc([N+](=O)[O-])cc1)C(=O)N[C@@H](Cc1cscn1)C(=O)N[C@@H](COP(=O)(O)O)C(=O)N[C@@H](Cc1ccc([N+](=O)[O-])cc1)C(=O)N[C@@H](CO)CC(=O)NCCC(=O)N[C@@H](Cc1ccc([N+](=O)[O-])cc1)C(=O)N[C@@H](CCCCN)C(=O)NCCC(=O)N[C@@H](CCCCNC(=S)Nc1ccc2c(c1)C(=O)OC21c2ccc(O)cc2Oc2cc(O)ccc21)C(N)=O` [FITC-labeled 14-3-3.12] (H-[dK][Nva][Phe(4-NO2)][Ala(4-thiazolyl)][pS][Phe(4-NO2)][β3hS][βAla][Phe(4-NO2)]K[βAla]K(FITC)-NH2)?
A: Kd (14-3-3γ [1]; Kd, 14-3-3γ, 0 h after incubation): 0.0195 µM; Kd (14-3-3γ [1]; Kd, 14-3-3γ, 4 h after incubation): 0.0194 µM; Kd (14-3-3γ [1]; Kd, 14-3-3γ, 20 h after incubation): 0.0219 µM; Kd (14-3-3σΔc; 0 h after incubation): 0.229 µM; Kd (14-3-3σΔc; 4 h after incubation): 0.169 µM; Kd (14-3-3σΔc; 20 h after incubation): 0.102 µM

Q: How did the “effect of mutation on affinity towards 12ca5” value (from here on “effect of mutation”) (anti-HA mAb clone 12ca5) turn out when YPYAVPDYAα-CONH2 was run?
A: The value was “deleterious but did not completely abolish binding”.

Q: Which IC50 (anti-HA mAb clone 12ca5) does the source give for `NC(=O)[C@@H](Cc1c[nH]cn1)NC(=O)[C@H]1CCCN1C(=O)[C@@H](CCC(=O)O)NC(=O)[C@@H](CC(=O)O)NC(=O)[C@@H](Cc1ccccc1)NC(=O)[C@@H](CCC(=O)O)NC(=O)[C@@H](Cc1ccc(O)cc1)NC(=O)[C@H]1CCCN1C(=O)[C@H](N)Cc1ccc(O)cc1` [ypyefdeph, reference compound] (H-[dY][dP][dY][dE][dF][dD][dE][dP][dH]-NH2) here?
A: The IC50 was 380 ± 25 µM.

Q: And the Kd (anti-HA mAb clone 12ca5)?
A: The Kd was 18 ± 4 µM.

Q: YPYDVPDAAα-CONH2 was tested. Which “effect of mutation” value (anti-HA mAb clone 12ca5) did it give?
A: Its value is “completed abrogated affinity”.

Q: What does the source list for `C[C@@H](O)[C@@H](CC(=O)N[C@@H](CCCCN)C(N)=O)NC(=O)[C@H](Cc1ccc([N+](=O)[O-])cc1)NC(=O)[C@H](Cc1cscn1)NC(=O)[C@H](CCCC(=O)O)NC(=O)[C@H](COP(=O)(O)O)NC(=O)[C@H](Cc1cscn1)NC(=O)[C@@H](CCC(N)=O)NC(=O)C[C@H](CO)NC(=O)[C@H](N)CCCCN` [NB.1] (H-[dK][β3hS][dQ][Ala(4-thiazolyl)][pS][Aad][Ala(4-thiazolyl)][Phe(4-NO2)][β3hT]K-NH2; N-terminus and C-terminus assumed)?
A: Kd (14-3-3γ [1]; [3]): 64 ± 20 µM; fold weaker binding than the 14-3-3γ-binding peptides (14-3-3γ [1]; fluorescence anisotropy, FITC-labeled peptides): ~ 10,000 fold; inhibitory activity (competition with BiExoS) (14-3-3γ [2]; unlabeled peptide, 10 nM FITC-labeled biExoS, 20 nM 14-3-3γ): no inhibitory activity

Q: Which results are given for `CC(C)[C@H](NC(=O)[C@H](CC(=O)O)NC(=O)[C@H](Cc1ccc(O)cc1)NC(=O)[C@@H]1CCCN1C(=O)[C@@H](N)Cc1ccc(O)cc1)C(=O)N1CCC[C@H]1C(=O)N[C@@H](CC(=O)O)C(=O)N[C@@H](Cc1ccc(O)cc1)C(=O)NCC(N)=O` [YPYDVPDYG] (H-YPYDVPDYG-NH2; N-terminus assumed)?
A: effect of mutation on affinity towards 12ca5 (anti-HA mAb clone 12ca5): deleterious but did not completely abolish binding; IC50 (anti-HA mAb clone 12ca5): 3.6 ± 1 µM; Kd (anti-HA mAb clone 12ca5): 0.17 ± 0.07 µM

Q: What does the source list for `NCCCC[C@H](NC(=O)[C@H](Cc1ccc([N+](=O)[O-])cc1)NC(=O)C[C@H](CO)NC(=O)C[C@H](CO)NC(=O)[C@H](Cc1ccc([N+](=O)[O-])cc1)NC(=O)[C@H](COP(=O)(O)O)NC(=O)[C@H](CCCN)NC(=O)C[C@H](CO)NC(=O)[C@H](CC1CCCCC1)NC(=O)[C@@H](N)CC1CCCCC1)C(N)=O` [14-3-3.6] (H-[Cha][Cha][β3hS][Orn][pS][Phe(4-NO2)][β3hS][β3hS][Phe(4-NO2)]K-NH2; N-terminus and C-terminus assumed)?
A: Kd (14-3-3γ [1]; [3]): 0.0031 ± 0.0003 µM; IC50 (14-3-3γ [2]; unlabeled peptide from 10 μM, 10 nM FITC-labeled biExoS, 20 nM 14-3-3γ, FA buffer pH 7.4, ambient temperature, read-out: IC50): 0.077 ± 0.008 µM

Q: How did the “effect of mutation” value (anti-HA mAb clone 12ca5) turn out when YPYDVPAYAα-CONH2 was run?
A: The value was “completed abrogated affinity”.

Q: Which results are given for `CC(C)C[C@@H](N)C(=O)N[C@@H](Cc1ccc([N+](=O)[O-])cc1)C(=O)N[C@@H](CO)CC(=O)N[C@@H](Cc1ccc([N+](=O)[O-])cc1)C(=O)N[C@@H](COP(=O)(O)O)C(=O)N[C@@H](Cc1ccc([N+](=O)[O-])cc1)C(=O)N[C@@H](CO)CC(=O)NCCC(=O)N[C@@H](Cc1ccc([N+](=O)[O-])cc1)C(=O)N[C@@H](CCCCN)C(N)=O` [14-3-3.1] (H-[dL][Phe(4-NO2)][β3hS][Phe(4-NO2)][pS][Phe(4-NO2)][β3hS][βAla][Phe(4-NO2)]K-NH2)?
A: Kd (14-3-3γ [1]; KD, FITC-labeled peptide (10 or 50 nM), 14-3-3γ dilution from 100 μM, FA buffer pH 7.4, ambient temperature, ± 95% confidence interval): 0.0057 ± 0.001 µM; IC50 (14-3-3γ [2]): 0.465 ± 0.045 µM

Reference: paper PMC7311396, “Ultra-large chemical libraries for the discovery of high-affinity peptide binders” (Nature Communications, 2020)
